Test [1] concerns the target T1, IRAK4 (Homo sapiens, UniProt Q9NWZ3).
T1 sequence (Q9NWZ3 1-460): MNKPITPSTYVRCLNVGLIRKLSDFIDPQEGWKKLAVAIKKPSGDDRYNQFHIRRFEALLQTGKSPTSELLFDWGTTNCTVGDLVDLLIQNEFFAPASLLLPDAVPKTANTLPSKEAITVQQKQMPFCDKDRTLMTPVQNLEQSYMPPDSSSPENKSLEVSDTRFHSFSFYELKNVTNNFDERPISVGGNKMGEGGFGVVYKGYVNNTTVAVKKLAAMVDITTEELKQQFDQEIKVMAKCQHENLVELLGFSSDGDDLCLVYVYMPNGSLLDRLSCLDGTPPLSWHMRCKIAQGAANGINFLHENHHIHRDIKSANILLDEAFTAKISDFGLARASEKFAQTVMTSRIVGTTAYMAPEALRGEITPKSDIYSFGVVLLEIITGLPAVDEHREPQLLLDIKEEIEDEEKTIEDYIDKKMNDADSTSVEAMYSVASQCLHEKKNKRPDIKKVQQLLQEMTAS
Nature of the test: Hibit fluorescence detection of proteolysis (IRAK4-HiBiT in HEK293T cells). Type of test: cell-based. Also noted: host or cells: HEK293T (ATCC). The conditions noted are these: for Dmax: HEK-293T; for DC50: IRAK4-HiBiT, HEK293T cells, 24 h. Put shortly:
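Degradation read-out: luminescence from lytic HiBiT detection (15 min, room temperature) after 24 h compound exposure (37 °C, 5% CO2) of HEK293T cells transiently expressing IRAK4 fused to a HiBiT tag. Data fitted to a bell-shaped four-parameter model giving two EC50 values.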

The target of test [2] is T1, IRAK4. As to the kind of experiment: WB detection of proteolysis (Western Blot, THP-1 cells). Type of test: cell-based. The conditions noted are these: Western Blot, THP-1 cells, 24 h; for DC50: read-out: DC50; for Dmax: read-out: Dmax. Put shortly: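 IRAK4 level in RIPA lysates read by Western blot with Odyssey imaging; values from bell-shaped non-linear fit with two four-parameter sections (Plateau1, Plateau2, Dip, LogEC50_1/2, nH1/2).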
(In general: A western blot detects proteins with antibodies after separation by electrophoresis.)

Where a name gives a salt, the structure may show the parent alone.

Take `Cn1c(=O)n(C2CCC(=O)NC2=O)c2cccc(N3CCC4(CCN(C[C@H]5CC[C@H](n6cc(-n7cc(-c8cnn9ccc(N%10CCNCC%10)nc89)nn7)c(C(F)F)n6)CC5)C4)CC3)c21` (some centres unmarked) [Example 128, 3-(4-(2-(((1r,4r)-4-(3-(difluoromethyl)-4-(4-(5-(piperazin-1-yl)pyrazolo[1,5-a]pyrimidin-3-yl)-1H-1,2,3-triazol-1-yl)-1H-pyrazol-1-yl)cyclohexyl)methyl)-2,8-diazaspiro[4.5]dec-8-yl)-3-methyl-2-oxo-2,3-dihydro-1H-benzo[d]imidazol-1-yl)piperidine-2,6-dione dihydrochloride]: at IRAK4 [1], the Dmax was > 80% and the DC50 is < 0.5 nM. Also, on IRAK4 [2], the DC50 was < 10 nM and the Dmax is > 70%.
The corresponding values for `Cn1c(=O)n(C2CCC(=O)NC2=O)c2cccc(N3CCC(N4CCN(C[C@H]5CC[C@H](n6cc(-n7cc(-c8cnn9ccc(N%10CCC(O)CC%10)nc89)nn7)c(C(F)F)n6)CC5)CC4)CC3)c21` (some centres unmarked) [Example 135] are > 80%, < 0.5 nM, < 10 nM and > 70%.
Take `Cn1c(=O)n(C2CCC(=O)NC2=O)c2cccc(N3CCC(N4CCN(C[C@H]5CC[C@H](n6cc(-n7cc(-c8cnn9ccc(N[C@H]%10CCCC[C@H]%10O)nc89)nn7)c(C(F)F)n6)CC5)CC4)CC3)c21` (some centres unmarked) [Example 122]: the Dmax was > 80% on IRAK4 [1] and > 70% on IRAK4 [2]. Further, the DC50 on IRAK4 [1] is < 0.5 nM; at IRAK4 [2], < 10 nM.
The corresponding values for `Cn1c(=O)n(C2CCC(=O)NC2=O)c2cccc(N3CCC(N4CCN(C[C@H]5CC[C@H](n6cc(-n7cc(-c8cnn9ccc(N%10CCNCC%10)nc89)nn7)c(C(F)F)n6)CC5)CC4)CC3)c21` (some centres unmarked) [Example 127, 3-(4-(4-(4-(((1r,4r)-4-(3-(difluoromethyl)-4-(4-(5-(piperazin-1-yl))pyrazolo[1,5-a]pyrimidin-3-yl)-1H-1,2,3-triazol-1-yl)-1H-pyrazol-1-yl)cyclohexyl)methyl)piperazin-1-yl)piperidin-1-yl)-3-methyl-2-oxo-2,3-dihydro-1H-benzo[d]imidazol-1-yl)piperidine-2,6-dione dihydrochloride] are > 80%, > 70%, < 0.5 nM and 10 to 30 nM.
In the case of `Cn1c(=O)n(C2CCC(=O)NC2=O)c2cccc(N3CCC4(CCN(C[C@H]5CC[C@H](n6cc(-n7cc(-c8cnn9ccc(N%10CCC(C)(O)CC%10)nc89)nn7)c(C(F)F)n6)CC5)CC4)C3)c21` (some centres unmarked) [Example 123], the Dmax on IRAK4 [1] is > 80%; on IRAK4 [2], < 60%. The DC50 at IRAK4 [1] was < 0.5 nM; at IRAK4 [2], < 10 nM.
`Cn1c(=O)n(C2CCC(=O)NC2=O)c2cccc(N3CCC4(CCN(C[C@H]5CC[C@H](n6cc(-n7cc(-c8cnn9ccc(NCC%10CC%10)nc89)nn7)c(C(F)F)n6)CC5)C4)CC3)c21` (some centres unmarked) [Example 113]: on IRAK4 [1], the Dmax was > 80% and the DC50 is < 0.5 nM. At IRAK4 [2], the DC50 was > 30 nM and the Dmax was in the range of 60 to 70%.
Consider `Cn1c(=O)n(C2CCC(=O)NC2=O)c2cccc(N[C@H]3CC[C@H](N(C)C[C@H]4CC[C@H](n5cc(-n6cc(-n7ccc8cc(C(N)=O)cnc87)nn6)c(C(F)F)n5)CC4)CC3)c21` (some centres unmarked) [Example 102], for which the Dmax was > 80% at IRAK4 [1] and < 60% on IRAK4 [2]. Moreover, the DC50 at IRAK4 [1] is < 0.5 nM; on IRAK4 [2] it was 10 to 30 nM.
`Cn1c(=O)n(C2CCC(=O)NC2=O)c2cccc(N3CCN(C[C@H]4CC[C@H](n5cc(-n6cc(-c7cnn8ccc(N9CCC(O)CC9)nc78)nn6)c(C(F)F)n5)CC4)CC3)c21` (some centres unmarked) [Example 140]: on IRAK4 [1], the Dmax is > 80% and the DC50 is < 0.5 nM. In addition, at IRAK4 [2], the DC50 lay in the range of 10 to 30 nM and the Dmax is > 70%.
Regarding `Cn1c(=O)n(C2CCC(=O)NC2=O)c2cccc(N3CCC4(CCN(C[C@H]5CC[C@H](n6cc(-n7cc(-c8cnn9ccc(N%10CCC(C)(O)CC%10)nc89)nn7)c(C(F)F)n6)CC5)C4)CC3)c21` (some centres unmarked) [Compound 238], the Dmax is > 80% at IRAK4 [1] and 60 to 70% on IRAK4 [2]. The DC50 at IRAK4 [1] (read-out: DC50) was < 0.5 nM; on IRAK4 [2] it was 10 to 30 nM.
`C[C@H]1CN(c2ccn3ncc(-c4cn(-c5cn([C@H]6CC[C@H](CN7CCC8(CC7)CN(c7cccc9c7n(C)c(=O)n9C7CCC(=O)NC7=O)C8)CC6)nc5C(F)F)nn4)c3n2)CCO1` (some centres unmarked) [Compound 178]: the results for the Dmax on IRAK4 [1] and on IRAK4 [2] were > 80% and > 70%, respectively. Further, the DC50 on IRAK4 [1] (read-out: DC50) is < 0.5 nM; on IRAK4 [2] it was < 10 nM.
`Cn1c(=O)n(C2CCC(=O)NC2=O)c2cccc(N3CCC(N4CCN(C[C@H]5CC[C@H](n6cc(-n7cc(-c8cnn9ccc(N%10CCOCC%10)nc89)nn7)c(C(F)F)n6)CC5)CC4)CC3)c21` (some centres unmarked) [Example 34]: on IRAK4 [1], the Dmax was > 80% and the DC50 was < 0.5 nM. On IRAK4 [2], the DC50 was < 10 nM and the Dmax was in the range of 60 to 70%.
`C[C@H]1CN(c2ccn3ncc(-c4cn(-c5cn([C@H]6CC[C@H](CN7CCC(N8CCN(c9cccc%10c9n(C)c(=O)n%10C9CCC(=O)NC9=O)CC8)CC7)CC6)nc5C(F)F)nn4)c3n2)CCO1` (some centres unmarked) [Compound 208]: the Dmax on IRAK4 [1] was > 80%; on IRAK4 [2] it was > 70%. In addition, the DC50 was < 0.5 nM on IRAK4 [1] (read-out: DC50) and < 10 nM at IRAK4 [2].
Regarding `Cn1c(=O)n(C2CCC(=O)NC2=O)c2cccc(N3CCN(C4CCN(C[C@H]5CC[C@H](n6cc(-n7cc(-c8cnn9ccc(N[C@@H]%10CCCC[C@@H]%10O)nc89)nn7)c(C(F)F)n6)CC5)CC4)CC3)c21` (some centres unmarked) [Example 153], the Dmax was > 80% on IRAK4 [1] and > 70% at IRAK4 [2]. The DC50 at IRAK4 [1] is < 0.5 nM; at IRAK4 [2] it was < 10 nM.
`Cn1c(=O)n(C2CCC(=O)NC2=O)c2cccc(N3CCC4(CCN(C[C@H]5CC[C@H](n6cc(-n7cc(-c8ccc9cc(C(N)=O)cnn89)nn7)c(C(F)F)n6)CC5)CC4)CC3)c21` (some centres unmarked) [Example 85, 7-(1-(3-(difluoromethyl)-1-((1r,4r)-4-((9-(1-(2,6-dioxopiperidin-3-yl)-3-methyl-2-oxo-2,3-dihydro-1H-benzo[d]imidazol-4-yl)-3,9-diazaspiro[5.5]undecan-3-yl)methyl)cyclohexyl)-1H-pyrazol-4-yl)-1H-1,2,3-triazol-4-yl)pyrrolo[1,2-b]pyridazine-3-carboxamide]: on IRAK4 [1], the Dmax was > 80% and the DC50 was < 0.5 nM. For the same compound, at IRAK4 [2], the DC50 is < 10 nM and the Dmax was > 70%.
On the same counts, the results for `Cn1c(=O)n(C2CCC(=O)NC2=O)c2cccc(N3CCC4(CCN(C[C@H]5CC[C@H](n6cc(-n7cc(-c8cnn9ccc(N%10CCOCC%10)nc89)nn7)c(C(F)F)n6)CC5)C4)CC3)c21` (some centres unmarked) [Example 39, 3-(4-(2-(((1r,4r)-4-(3-(difluoromethyl)-4-(4-(5-morpholinopyrazolo[1,5-a]pyrimidin-3-yl)-1H-1,2,3-triazol-1-yl)-1H-pyrazol-1-yl)cyclohexyl)methyl)-2,8-diazaspiro[4.5]dec-8-yl)-3-methyl-2-oxo-2,3-dihydro-1H-benzo[d]imidazol-1-yl)piperidine-2,6-dione] are > 80%, < 0.5 nM, < 10 nM and > 70%.
On to `Cn1c(=O)n(C2CCC(=O)NC2=O)c2cccc(N3CCC4(CCN(C[C@H]5CC[C@H](n6cc(-n7cc(-c8cnn9ccc(N%10CCC[C@H](O)C%10)nc89)nn7)c(C(F)F)n6)CC5)CC4)CC3)c21` (some centres unmarked) [Example 142], for which, on IRAK4 [1], the Dmax is > 80% and the DC50 is < 0.5 nM. At IRAK4 [2], the DC50 was < 10 nM and the Dmax was > 70%.
On the same counts, the results for `Cn1c(=O)n(C2CCC(=O)NC2=O)c2cccc(N3CCN(C4CCN(C[C@H]5CC[C@H](n6cc(-n7cc(-c8cnn9ccc(N%10CCC[C@H](O)C%10)nc89)nn7)c(C(F)F)n6)CC5)CC4)CC3)c21` (some centres unmarked) [Example 144] are > 80%, < 0.5 nM, < 10 nM and > 70%.
The corresponding values for `Cn1c(=O)n(C2CCC(=O)NC2=O)c2cccc(N3CCC4(CCN(C[C@H]5CC[C@H](n6cc(-n7cc(-c8cnn9ccc(N%10CCC(O)CC%10)nc89)nn7)c(C(F)F)n6)CC5)C4)CC3)c21` (some centres unmarked) [Example 139] are > 80%, < 0.5 nM, < 10 nM and > 70%.
Take `Cn1c(=O)n(C2CCC(=O)NC2=O)c2cccc(CN3CC4(CCC(CN[C@H]5CC[C@H](n6cc(-n7cc(-c8ccc9cc(C(N)=O)cnn89)nn7)c(C(F)F)n6)CC5)CC4)C3)c21` (some centres unmarked) [Example 60]: at IRAK4 [1], the Dmax is > 80% and the DC50 was 1 to 5 nM. Besides, at IRAK4 [2], the DC50 lay within 10 to 30 nM and the Dmax was > 70%.
For the compound `Cn1c(=O)n(C2CCC(=O)NC2=O)c2cccc(N3CCC4(CCN(C[C@H]5CC[C@H](n6cc(-n7cc(-c8cnn9ccc(N%10CCC[C@H](N)C%10)nc89)nn7)c(C(F)F)n6)CC5)C4)CC3)c21` (some centres unmarked) [Example 119], at IRAK4 [1], the Dmax was > 80% and the DC50 was 0.5 to 1 nM. For the same compound, at IRAK4 [2], the DC50 lay within 10 to 30 nM and the Dmax is > 70%.

Values taken from patent EP4759807A1, “PROTEOLYSIS TARGETING CHIMERA COMPOUND FOR DEGRADING IRAK4 AND USE THEREOF” (Shenzhen Zhongge Biological Technology Co., Ltd., priority 2023, dated 2025).
